These results are taken from patent US9468661B2, “Pyrrolidine derivatives and their use as complement pathway modulators” (priority 2012, dated 2016).

Sequence of human factor D (P00746 26-253): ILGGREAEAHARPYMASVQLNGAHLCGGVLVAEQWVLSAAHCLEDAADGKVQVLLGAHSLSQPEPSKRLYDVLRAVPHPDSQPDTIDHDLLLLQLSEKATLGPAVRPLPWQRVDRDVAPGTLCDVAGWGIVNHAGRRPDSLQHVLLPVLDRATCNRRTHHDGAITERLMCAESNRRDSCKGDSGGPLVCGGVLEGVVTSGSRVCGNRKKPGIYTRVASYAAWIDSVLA

The target of one experiment is human factor D (Homo sapiens (Human), UniProt P00746). As to the kind of experiment: biochemical. Format: biochemical. The settings on record: Factor D inhibition data using Method 1; recombinant human factor D 10 nM, substrate Z-Lys-thiobenzyl, fluorescence; read-out: IC50. A digest of the protocol:
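E. coli-expressed recombinant human factor D (10 nM) was preincubated with compound for 1 h at room temperature in 0.1 M Hepes pH 7.5, 1 mM MgCl2, 1 M NaCl, 0.05% CHAPS. Fluorescence (ex 485/em 535 nm) was read after adding Z-Lys-thiobenzyl (200 μM) and 2,4-dinitrobenzenesulfonyl-fluoresceine (25 μM); IC50 came from percent inhibition versus concentration.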
In general, IC50 refers to the concentration needed to halve the response being measured. As to `CC1(C)[C@H](CNC(=O)[C@@H]2C[C@H]3C[C@H]3N2C(=O)Cn2nc(C(N)=O)c3ccccc32)C1(Cl)Cl` [Example 107, 1-(2-{(1R,3S,5R)-3-[((R)-2,2-Dichloro-3,3-dimethyl-cyclopropylmethyl)-carbamoyl]-2-aza-bicyclo[3.1.0]hex-2-yl}-2-oxo-ethyl)-1H-indazole-3-carboxylic acid amide], the IC50 was 0.052 µM.
Still for that read-out and setting: the value for `C[C@@H](NC(=O)[C@@H]1C[C@H]2C[C@H]2N1C(=O)Cn1nc(C(N)=O)c2ccncc21)[C@H]1CC1(Cl)Cl` [Example 37, 1-(2-{(1R,3S,5R)-3-[(R)-1-((R)-2,2-Dichloro-cyclopropyl)-ethylcarbamoyl]-2-aza-bicyclo[3.1.0]hex-2-yl}-2-oxo-ethyl)-1H-pyrazolo[3,4-c]pyridine-3-carboxylic acid amide] was 0.011 µM; that for `Cc1cc2c(C(N)=O)nn(CC(=O)N3[C@@H]4C[C@@H]4C[C@H]3C(=O)N[C@H](C)[C@H]3CC3(Cl)Cl)c2cn1` [Example 38, 1-(2-{(1R,3S,5R)-3-[(R)-1-((R)-2,2-Dichloro-cyclopropyl)-ethylcarbamoyl]-2-aza-bicyclo[3.1.0]hex-2-yl}-2-oxo-ethyl)-5-methyl-1H-pyrazolo[3,4-c] pyridine-3-carboxylic acid amide] was 0.04 µM.
Turning to `CO[C@H]1[C@@H](C(=O)NC[C@H]2CC2(Cl)Cl)N(C(=O)Cn2nc(C(N)=O)c3ccc(Cl)cc32)C[C@@H]1F` [Example 41, 6-Chloro-1-(2-{(2S,3S,4S)-2-[((R)-2,2-dichloro-cyclopropylmethyl)-carbamoyl]-4-fluoro-3-methoxy-pyrrolidin-1-yl}-2-oxo-ethyl)-1H-indazole-3-carboxylic acid amide], the IC50 worked out at 0.051 µM.
Turning to `NC(=O)c1nn(CC(=O)N2[C@H](C(=O)NC[C@H]3CC3(Cl)Cl)C[C@@]3(CO)C[C@@H]23)c2ccccc12` [Example 52, 1-(2-{(1R,3S,5S)-3-[((R)-2,2-Dichloro-cyclopropylmethyl)-carbamoyl]-5-hydroxymethyl-2-aza-bicyclo[3.1.0]hex-2-yl}-2-oxo-ethyl)-1H-indazole-3-carboxylic acid amide], the IC50 is 0.056 µM.
The same measure, in the same setting: the value for `CC(=O)c1nn(CC(=O)N2[C@@H]3C[C@@H]3C[C@H]2C(=O)NCC2CCCC(C)(C)C2)c2cnccc12` (single isomer, unassigned; dia 1) [Example 17] was 0.661 µM; that for `Cc1nccc2c(C(N)=O)nn(CC(=O)N3[C@@H]4C[C@@H]4C[C@H]3C(=O)NC[C@H]3CC3(Cl)Cl)c12` [Example 112, 1-(2-{(1R,3S,5R)-3-[((R)-2,2-Dichloro-cyclopropylmethyl)-carbamoyl]-2-aza-bicyclo[3.1.0]hex-2-yl}-2-oxo-ethyl)-7-methyl-1H-pyrazolo[3,4-c]pyridine-3-carboxylic acid amide] was 0.188 µM; that for `C[C@@H](NC(=O)[C@@H]1C[C@H]2C[C@H]2N1C(=O)Nc1cn(C(N)=O)c2ccccc12)C1CCCCC1` [Example 28, (1R,3S,5R)-2-Aza-bicyclo[3.1.0]hexane-2,3-dicarboxylic acid 2-[(1-carbamoyl-1H-indol-3-yl)-amide] 3-[((R)-1-cyclohexyl-ethyl)-amide]] was 0.078 µM.
Same read-out and setting: the value for `CC(=O)c1nn(CC(=O)N2[C@@H]3C[C@@H]3C[C@H]2C(=O)NC[C@H]2CC2(Cl)Cl)c2ncccc12` [Example 69, (1R,3S,5R)-2-[2-(3-Acetyl-pyrazolo[3,4-b]pyridin-1-yl)-acetyl]-2-aza-bicyclo[3.1.0] hexane-3-carboxylic acid ((R)-2,2-dichloro-cyclopropylmethyl)-amide] was 0.053 µM; that for `CC(=O)c1nn(CC(=O)N2[C@@H]3C[C@@H]3C[C@H]2C(=O)NC[C@H]2C(C)(C)C2(Cl)Cl)c2ccc(OCc3ncccn3)cc12` [Example 104, (1R,3S,5R)-2-{2-[3-Acetyl-5-(pyrimidin-2-ylmethoxy)-indazol-1-yl]-acetyl}-2-aza-bicyclo[3.1.0] hexane-3-carboxylic acid ((R)-2,2-dichloro-3,3-dimethyl-cyclopropylmethyl)-amide] was 0.016 µM.
On the same count and under the same terms, the value for `CC(=O)c1nn(CC(=O)N2[C@@H]3C[C@@H]3C[C@H]2C(=O)NCC2CCC3(CCC3)CC2)c2cnccc12` [Example 3, (1R,3S,5R)-2-[2-(3-Acetyl-pyrazolo[3,4-c]pyridin-1-yl)-acetyl]-2-aza-bicyclo[3.1.0] hexane-3-carboxylic acid (spiro[3.5]non-7-ylmethyl)-amide] was 1.35 µM; that for `C[C@@H](NC(=O)[C@@H]1C[C@@]2(CO)C[C@H]2N1C(=O)Cn1nc(C(N)=O)c2ccccc21)[C@H]1CC1(Cl)Cl` [Example 57, 1-(2-{(1R,3S,5S)-3-[(R)-1-((R)-2,2-Dichloro-cyclopropyl)-ethylcarbamoyl]-5-hydroxymethyl-2-aza-bicyclo[3.1.0]hex-2-yl}-2-oxo-ethyl)-1H-indazole-3-carboxylic acid amide] was 0.017 µM; that for `CC(=O)c1nn(CC(=O)N2[C@@H]3C[C@@H]3C[C@H]2C(=O)NC[C@H]2CC2(Cl)Cl)c2ccc(OCc3nccc(C)n3)cc12` [Example 56, (1R,3S,5R)-2-{2-[3-Acetyl-5-(4-methyl-pyrimidin-2-ylmethoxy)-indazol-1-yl]-acetyl}-2-aza-bicyclo[3.1.0]hexane-3-carboxylic acid ((R)-2,2-dichloro-cyclopropylmethyl)-amide] was 0.008 µM.
With `CC(=O)c1nn(CC(=O)N2[C@@H]3C[C@@H]3C[C@H]2C(=O)NC[C@@H]2CC2(Cl)Cl)c2ccc(OCc3ncccn3)cc12` [Example 93, (1R,3S,5R)-2-{2-[3-Acetyl-5-(pyrimidin-2-ylmethoxy)-indazol-1-yl]-acetyl}-2-aza-bicyclo[3.1.0] hexane-3-carboxylic acid ((S)-2,2-dichloro-cyclopropylmethyl)-amide], the IC50 was found to be 0.019 µM.
Same read-out and setting: the value for `C[C@@H](NC(=O)[C@@H]1C[C@@H](F)CN1C(=O)Cn1nc(C(N)=O)c2ccccc21)[C@H]1CC1(Cl)Cl` [Example 58, 1-(2-{(2S,4R)-2-[(R)-1-((R)-2,2-Dichloro-cyclopropyl)-ethylcarbamoyl]-4-fluoro-pyrrolidin-1-yl}-2-oxo-ethyl)-1H-indazole-3-carboxylic acid amide] was 0.039 µM.
Same read-out and setting: the value for `CC(=O)c1nn(CC(=O)N2[C@@H]3C[C@@H]3C[C@H]2C(=O)NCC2CC(C)C2)c2ccc(OCc3ncccn3)cc12` (mixture of isomers) [Example 65, (1R,3S,5R)-2-{2-[3-Acetyl-5-(pyrimidin-2-ylmethoxy)-indazol-1-yl]-acetyl}-2-aza-bicyclo[3.1.0] hexane-3-carboxylic acid (3-methyl-cyclobutylmethyl)-amide (mixture of 4 diastereoisomers)] was 0.02 µM.
On the same count and under the same terms, then `CC(=O)c1nn(CC(=O)N2[C@@H]3C[C@@H]3C[C@H]2C(=O)NCC2CCCC2(C)C)c2cnccc12` (single isomer, unassigned; dia 2) [Example 20], with 0.233 µM; and `NC(=O)c1nn(CC(=O)N2[C@@H]3C[C@@H]3C[C@H]2C(=O)NC[C@H]2CC2(Cl)Cl)c2cc(F)c(F)cc12` [Example 96, 1-(2-{(1R,3S,5R)-3-[((R)-2,2-Dichloro-cyclopropylmethyl)-carbamoyl]-2-aza-bicyclo[3.1.0]hex-2-yl}-2-oxo-ethyl)-5,6-difluoro-1H-indazole-3-carboxylic acid amide], with 0.307 µM.
Take `CC(=O)c1nn(CC(=O)N2[C@@H]3C[C@@H]3C[C@H]2C(=O)NC[C@H]2CC2(Cl)Cl)c2cnccc12` [Example 92, (1R,3S,5R)-2-[2-(3-Acetyl-pyrazolo[3,4-c]pyridin-1-yl)-acetyl]-2-aza-bicyclo[3.1.0] hexane-3-carboxylic acid ((R)-2,2-dichloro-cyclopropylmethyl)-amide]: the IC50 is 0.024 µM.
As to `CC1CCCC(CNC(=O)[C@@H]2C[C@H]3C[C@H]3N2C(=O)Cn2nc(C(N)=O)c3ccncc32)C1` (single isomer, unassigned; dia 4) [Example 118], the IC50 turned out to be 0.159 µM.

Staying with this experiment, now noted: IC50, Factor D inhibition data using Method 1; recombinant human factor D 10 nM, substrate Z-Lys-thiobenzyl, fluorescence.
For `CC(=O)c1nn(CC(=O)N2[C@@H]3C[C@@H]3C[C@H]2C(=O)NCC2C(C)C2(Cl)Cl)c2ccc(OCc3ncccn3)cc12` (single isomer, unassigned; dia 1) [Example 75, (1R,3S,5R)-2-{2-[3-Acetyl-5-(pyrimidin-2-ylmethoxy)-indazol-1-yl]-acetyl}-2-aza-bicyclo[3.1.0] hexane-3-carboxylic acid ((1R,3R) or (1S,3S)-2,2-dichloro-3-methyl-cyclopropylmethyl)-amide-Dia 1], the IC50 came out at 0.007 µM.
The same measure, in the same setting: the value for `NC(=O)c1nn(CC(=O)N2[C@@H]3C[C@@H]3C[C@H]2C(=O)NC(CO)C2CC2(Cl)Cl)c2ccccc12` (single isomer, unassigned; dia 2) [Example 24] was 0.755 µM; that for `CC1C(CNC(=O)[C@@H]2C[C@H]3C[C@H]3N2C(=O)Cn2nc(C(N)=O)c3ccncc32)C1(Cl)Cl` (single isomer, unassigned; dia 2) [Example 82, 1-(2-{(1R,3S,5R)-3-[((1R,3R) or (1S,3S)-2,2-Dichloro-3-methyl-cyclopropylmethyl)-carbamoyl]-2-aza-bicyclo[3.1.0]hex-2-yl}-2-oxo-ethyl)-1H-pyrazolo[3,4-c]pyridine-3-carboxylic acid amide-Dia 2] was 0.085 µM; that for `CC1C(CNC(=O)[C@@H]2C[C@H]3C[C@H]3N2C(=O)Cn2nc(C(N)=O)c3ccncc32)C1(Cl)Cl` (single isomer, unassigned; dia 1) [Example 81, 1-(2-{(1R,3S,5R)-3-[((1R,3R) or (1S,3R)-2,2-Dichloro-3-methyl-cyclopropylmethyl)-carbamoyl]-2-aza-bicyclo[3.1.0]hex-2-yI}-2-oxo-ethyl)-1H-pyrazolo[3,4-c]pyridine-3-carboxylic acid amide-Dia 1] was 0.021 µM.
Still for that read-out and setting: the value for `CC1CCC(CNC(=O)[C@@H]2C[C@H]3C[C@H]3N2C(=O)Cn2nc(C(N)=O)c3ccccc32)C1` (single isomer, unassigned; dia 2) [Example 90] was 0.053 µM.
